Legend:
Hif1α [1] = type: cell-based
CHD4 [2] = type: cell-based
MTA3 [3] = type: cell-based
CHD4 [4] = type: cell-based; remark: listed apart in the source
MTA3 [5] = type: cell-based; remark: listed apart in the source
Suv39h1 = type: cell-based
Hif1α [6] = type: cell-based, mouse

[Cl-].[Cl-].[Co+2] [CoCl2]
Hif1α protein levels (Hif1α [1]): increased | accumulation of Hif1α (Hif1α [1]): significant accumulation of Hif1α | accumulation of Hif1α protein in combination with IR, versus agent alone (Hif1α [1]): much larger accumulation of Hif1α protein | CHD4 mRNA levels (CHD4 [2]): increased | MTA3 mRNA levels (MTA3 [3]): increased | CHD4 protein levels (CHD4 [4]): increased | MTA3 protein levels (MTA3 [5]): increased | expression of the Suv39h1 methyltransferase (Suv39h1): to a lesser extent, CoCl2, increased expression of the Suv39h1 methyltransferase | ability to increase Hif1α levels in SuvDKO MEFs (Hif1α [6]): not altered

Reference: US20130267594A1, “PROLYL HYDROXYLASE INHIBITORS AS RADIATION MITIGATORS AND RADIATION PROTECTORS” (priority 2010, published 2013)
